Reference: patent US6599937B1, “Unsaturated oxyalkylene esters and uses thereof” (Beacon Laboratories, Inc., priority 1997, dated 2003)
Where two headings read alike, the source gives them in different places.

Legend:
[1] = test system: HL-60 cells; conditions: HL-60 cells cultured 3 days
Experimental: Cancer cell differentiation was evaluated in a human leukemia cell line by changes in expression of myelocytic maturation marker CD11b. The level of CD11b was measured on HL-60 cells by flow cytometry using a monoclonal antibody (MAb) against CD11b in a standard indirect immunofluorescence assay. Cells were cultured for 3 days with media or the indicated concentration of DiMeOCOMB. Cultured cells were collected by centrifugation, resuspended at 10^6 cells per 20μ RPMI+10% FCS and incubated with MAb for 30 min at […]. The cells were washed twice in cold PBS+[…] FCS and incubated with a 1:20 dilution of FITC-conjugated F(ab′)^2 fragment of rabbit anti-mouse IgG for 20-30 min at […]. in the dark. After washing the cells twice in cold PBS+10% FCS, the flow cytometry was performed.

[2] = test system: NCI-H522; assay: SRB assay, inhibition of cancer cell proliferation, NCI-H522; format: cell-based
Experimental: (§1) The inhibition of cell proliferation was measured in the indicated cancer cell lines using the sulforhodamine B (SRB) assay as described by Monks et al., 1991, J. Natl. Can. Inst. 83:757-766. The SRB assay is used to screen for anti-cancer drugs. […] The table provides the dosage of each compound (in mM) which inhibited fifty percent (IC50) or ninety percent (IC90) of proliferation when calculated using the Chou Analysis' Median Effective Dose equation.

[3] = test system: LOX IMVI; assay: SRB assay, inhibition of cancer cell proliferation, LOX IMVI; format: cell-based
Experimental: as §1

[4] = test system: OVCAR-5; assay: SRB assay, inhibition of cancer cell proliferation, OVCAR-5; format: cell-based
Experimental: as §1

[5] = test system: HT29; assay: SRB assay, inhibition of cancer cell proliferation, HT29; format: cell-based
Experimental: as §1

[6] = test system: NCI-H23; assay: SRB assay, inhibition of cancer cell proliferation, NCI-H23; format: cell-based
Experimental: as §1

[7] = test system: SF-295; assay: SRB assay, inhibition of cancer cell proliferation, SF-295; format: cell-based
Experimental: as §1

[8] = test system: PC-3; assay: SRB assay, inhibition of cancer cell proliferation, PC-3; format: cell-based, human
Experimental: as §1

[9] = test system: CFPAC; assay: SRB assay, inhibition of cancer cell proliferation, CFPAC; format: cell-based
Experimental: as §1

[10] = test system: MCF7; assay: SRB assay, inhibition of cancer cell proliferation, MCF7; format: cell-based, human
Experimental: (§2) Human promyelocytic leukemia cells (HL-60), human pancreatic carcinoma cells (PaCa-2) and human breast adenocarcinoma cells, pleural effusion cells (MCF-7) can be cultured as follows. Cells are grown in RPMI media with 10% FCS, supplemented with 2 mM glutamine and incubated at 37° C. in a humidified 5% CO2 incubator. Alternatively, cells can be grown in any other appropriate growth medium and conditions which supports the growth of the cell line under investigation. Viability can be determined by trypan blue exclusion. Cells are exposed to a test compound, cultures are harvested at various time points following treatment and stained with trypan blue. The inhibition of cell proliferation was measured in the indicated cancer cell lines using the sulforhodamine B (SRB) assay as described by Monks et al., 1991, J. Natl. Can. Inst. 83:757-766. The SRB assay is used to screen for anti-cancer drugs. […] The table provides the dosage of each compound (in mM) which inhibited fifty percent (IC50) or ninety percent (IC90) of proliferation when calculated using the Chou Analysis' Median Effective Dose equation.

[11] = test system: HL-60; assay: SRB assay, inhibition of cancer cell proliferation, HL-60; format: cell-based, human
Experimental: as §2

[12] = CFPAC cell line, SRB assay, Chou Median Effective Dose equation, read-out: IC50
[13] = CFPAC cell line, SRB assay, Chou Median Effective Dose equation, read-out: IC90
[14] = Homo sapiens, NCI-H522 cell line, SRB assay, Chou Median Effective Dose equation, read-out: IC50
[15] = Homo sapiens, NCI-H522 cell line, SRB assay, Chou Median Effective Dose equation, read-out: IC90
[16] = Homo sapiens, LOX IMVI cell line, SRB assay, Chou Median Effective Dose equation, read-out: IC50
[17] = Homo sapiens, LOX IMVI cell line, SRB assay, Chou Median Effective Dose equation, read-out: IC90
[18] = Homo sapiens, OVCAR-5 cell line, SRB assay, Chou Median Effective Dose equation, read-out: IC50
[19] = Homo sapiens, OVCAR-5 cell line, SRB assay, Chou Median Effective Dose equation, read-out: IC90
[20] = Homo sapiens, HT-29, HT29 cell line, SRB assay, Chou Median Effective Dose equation, read-out: IC50
[21] = Homo sapiens, HT-29, HT29 cell line, SRB assay, Chou Median Effective Dose equation, read-out: IC90
[22] = Homo sapiens, NCI-H23 cell line, SRB assay, Chou Median Effective Dose equation, read-out: IC50
[23] = Homo sapiens, NCI-H23 cell line, SRB assay, Chou Median Effective Dose equation, read-out: IC90
[24] = Homo sapiens, SF-295 cell line, SRB assay, Chou Median Effective Dose equation, read-out: IC50
[25] = Homo sapiens, SF-295 cell line, SRB assay, Chou Median Effective Dose equation, read-out: IC90
[26] = Homo sapiens, PC-3 cell line, SRB assay, Chou Median Effective Dose equation, read-out: IC50
[27] = Homo sapiens, PC-3 cell line, SRB assay, Chou Median Effective Dose equation, read-out: IC90
[28] = Homo sapiens, MCF7 cell line, SRB assay, Chou Median Effective Dose equation, read-out: IC50
[29] = Homo sapiens, MCF7 cell line, SRB assay, Chou Median Effective Dose equation, read-out: IC90
[30] = Homo sapiens, HL-60 cell line, SRB assay, Chou Median Effective Dose equation, read-out: IC50
[31] = Homo sapiens, HL-60 cell line, SRB assay, Chou Median Effective Dose equation, read-out: IC90

**Q.** Which “% CD11b Cells” value ([1]; concentration 50 μM (media control 12.2)) does the source give for CCCC(=O)OCOC(=O)C=Cc1ccc(OC)c(OC)c1 [DiMeOCOMB, 3,4-Dimethyoxycinnamoyloxymethyl Butyrate] here?
**A.** 87.5%

**Q.** And the “% CD11b Cells” value ([1]; concentration 100 μM (media control 12.2))?
**A.** 88.6%

**Q.** And the “% CD11b Cells” value ([1]; concentration 203 μM (media control 12.2))?
**A.** 90.4%

**Q.** And the IC50 ([2]; NCI-H522 cell line, SRB assay, Chou Median Effective Dose equation, read-out: IC50)?
**A.** 752 µM

**Q.** And the IC90 ([2]; NCI-H522 cell line, SRB assay, Chou Median Effective Dose equation, read-out: IC90)?
**A.** 1370 µM

**Q.** And the IC50 ([3]; LOX IMVI cell line, SRB assay, Chou Median Effective Dose equation, read-out: IC50)?
**A.** 772 µM

**Q.** What about the IC90 ([3]; LOX IMVI cell line, SRB assay, Chou Median Effective Dose equation, read-out: IC90) of the same molecule?
**A.** 978 µM

**Q.** What about the IC50 ([4]; OVCAR-5 cell line, SRB assay, Chou Median Effective Dose equation, read-out: IC50) of the same molecule?
**A.** 1460 µM

**Q.** What about the IC90 ([4]; OVCAR-5 cell line, SRB assay, Chou Median Effective Dose equation, read-out: IC90) of the same molecule?
**A.** 1890 µM

**Q.** And the IC50 ([5]; HT29 cell line, SRB assay, Chou Median Effective Dose equation, read-out: IC50)?
**A.** 406 µM

**Q.** What about the IC90 ([5]; HT29 cell line, SRB assay, Chou Median Effective Dose equation, read-out: IC90) of the same molecule?
**A.** 798 µM

**Q.** What about the IC50 ([6]; NCI-H23 cell line, SRB assay, Chou Median Effective Dose equation, read-out: IC50) of the same molecule?
**A.** 785 µM

**Q.** What about the IC90 ([6]; NCI-H23 cell line, SRB assay, Chou Median Effective Dose equation, read-out: IC90) of the same molecule?
**A.** > 4000 µM

**Q.** And the IC50 ([7]; SF-295 cell line, SRB assay, Chou Median Effective Dose equation, read-out: IC50)?
**A.** 764 µM

**Q.** And the IC90 ([7]; SF-295 cell line, SRB assay, Chou Median Effective Dose equation, read-out: IC90)?
**A.** 977 µM

**Q.** And the IC50 ([8]; PC-3 cell line, SRB assay, Chou Median Effective Dose equation, read-out: IC50)?
**A.** 1440 µM

**Q.** And the IC90 ([8]; PC-3 cell line, SRB assay, Chou Median Effective Dose equation, read-out: IC90)?
**A.** 1870 µM

**Q.** And the IC50 [9, 12]?
**A.** 308 µM

**Q.** And the IC90 [9, 13]?
**A.** 3570 µM

**Q.** What about the IC50 ([10]; MCF7 cell line, SRB assay, Chou Median Effective Dose equation, read-out: IC50) of the same molecule?
**A.** 301 µM

**Q.** And the IC90 ([10]; MCF7 cell line, SRB assay, Chou Median Effective Dose equation, read-out: IC90)?
**A.** 466 µM

**Q.** What about the IC50 ([11]; HL-60 cell line, SRB assay, Chou Median Effective Dose equation, read-out: IC50) of the same molecule?
**A.** 203 µM

**Q.** And the IC90 ([11]; HL-60 cell line, SRB assay, Chou Median Effective Dose equation, read-out: IC90)?
**A.** 248 µM

**Q.** For CC(Cc1ccccc1)C(=O)O (centres unmarked) [MePPA, 2-methyl-3-phenylpropionic acid, reference compound], which IC50 ([2]; Homo sapiens, NCI-H522) is on record?
**A.** > 4000 µM

**Q.** And the IC90 ([2]; Homo sapiens, NCI-H522)?
**A.** > 4000 µM

**Q.** What about the IC50 ([3]; Homo sapiens, LOX IMVI) of the same molecule?
**A.** > 4000 µM

**Q.** And the IC90 ([3]; Homo sapiens, LOX IMVI)?
**A.** > 4000 µM

**Q.** What about the IC50 ([4]; Homo sapiens, OVCAR-5) of the same molecule?
**A.** > 4000 µM

**Q.** What about the IC90 ([4]; Homo sapiens, OVCAR-5) of the same molecule?
**A.** > 4000 µM

**Q.** And the IC50 ([5]; Homo sapiens, HT-29)?
**A.** > 4000 µM

**Q.** What about the IC90 ([5]; Homo sapiens, HT-29) of the same molecule?
**A.** > 4000 µM

**Q.** And the IC50 ([6]; Homo sapiens, NCI-H23)?
**A.** > 4000 µM

**Q.** And the IC90 ([6]; Homo sapiens, NCI-H23)?
**A.** > 4000 µM

**Q.** And the IC50 ([7]; Homo sapiens, SF-295)?
**A.** > 4000 µM

**Q.** What about the IC90 ([7]; Homo sapiens, SF-295) of the same molecule?
**A.** > 4000 µM

**Q.** What about the IC50 ([8]; Homo sapiens, PC-3) of the same molecule?
**A.** > 4000 µM

**Q.** What about the IC90 ([8]; Homo sapiens, PC-3) of the same molecule?
**A.** > 4000 µM

**Q.** And the IC50 [9]?
**A.** 3540 µM

**Q.** What about the IC90 [9] of the same molecule?
**A.** > 4000 µM

**Q.** What about the IC50 ([10]; Homo sapiens, MCF7) of the same molecule?
**A.** > 4000 µM

**Q.** And the IC90 ([10]; Homo sapiens, MCF7)?
**A.** > 4000 µM

**Q.** What about the IC50 ([11]; Homo sapiens, HL-60) of the same molecule?
**A.** > 4000 µM

**Q.** And the IC90 ([11]; Homo sapiens, HL-60)?
**A.** > 4000 µM

**Q.** What does the source list for CCCC(=O)OCOC(=O)C=Cc1ccccc1 [COMB, Cinnamoyloxymethyl Butyrate]?
**A.** IC50 [2, 14]: 189 µM; IC90 [2, 15]: 249 µM; IC50 [3, 16]: 197 µM; IC90 [3, 17]: 1910 µM; IC50 [4, 18]: 367 µM; IC90 [4, 19]: 500 µM; IC50 [5, 20]: 349 µM; IC90 [5, 21]: 492 µM; IC50 [6, 22]: 182 µM; IC90 [6, 23]: 249 µM; IC50 [7, 24]: 197 µM; IC90 [7, 25]: > 4000 µM; IC50 [8, 26]: 203 µM; IC90 [8, 27]: > 4000 µM; IC50 [9, 12]: 150 µM; IC90 [9, 13]: 237 µM; IC50 [10, 28]: 196 µM; IC90 [10, 29]: > 4000 µM; IC50 [11, 30]: 443 µM; IC90 [11, 31]: > 4000 µM

**Q.** What does the source list for CC(=Cc1ccccc1)C(=O)O [MeCA, α-methylcinnamic acid, reference compound]?
**A.** IC50 [2, 14]: 1980 µM; IC90 [2, 15]: 3820 µM; IC50 [3, 16]: 3360 µM; IC90 [3, 17]: > 4000 µM; IC50 [4, 18]: 3730 µM; IC90 [4, 19]: > 4000 µM; IC50 [5, 20]: 3960 µM; IC90 [5, 21]: > 4000 µM; IC50 [6, 22]: 3270 µM; IC90 [6, 23]: > 4000 µM; IC50 [7, 24]: > 4000 µM; IC90 [7, 25]: > 4000 µM; IC50 [8, 26]: > 4000 µM; IC90 [8, 27]: > 4000 µM; IC50 [9, 12]: 1940 µM; IC90 [9, 13]: > 4000 µM; IC50 [10, 28]: > 4000 µM; IC90 [10, 29]: > 4000 µM; IC50 [11, 30]: 2600 µM; IC90 [11, 31]: > 4000 µM
